Assays:
[1] = xn = mol fraction of the nth substance listed; conditions: 98 kPa, Liquid; for speed of sound: Frequency=3 MHz, Single path-length method; for mass density: Vibrating tube method
[2] = excess molar enthalpy (molar enthalpy of mixing); xn = mol fraction of the nth substance listed; conditions: 298.15 K, 98 kPa, Liquid, Calvet calorimetry

Cn1ccnc1 [1-methylimidazole] + CCCO
[1]
Conditions	mass density, 288.15 K [kg/m3]	mass density, 298.15 K [kg/m3]	mass density, 308.15 K [kg/m3]	mass density, 318.15 K [kg/m3]	mass density, 328.15 K [kg/m3]	speed of sound, 288.15 K [m/s]	speed of sound, 298.15 K [m/s]	speed of sound, 308.15 K [m/s]	speed of sound, 318.15 K [m/s]	speed of sound, 328.15 K [m/s]
x1 = 0.0507	820.94	812.86	804.67	796.32	787.79	1261.9	1227.2	1192.8	1158.7	1124.9
x1 = 0.1042	834.73	826.55	818.26	809.85	801.26	1284.5	1249.6	1214.9	1180.6	1146.6
x1 = 0.2018	859.55	851.23	842.82	834.3	825.64	1324.6	1289.5	1254.5	1219.9	1185.7
x1 = 0.301	884.11	875.67	867.16	858.56	849.84	1364.2	1329	1293.8	1259	1224.5
x1 = 0.4047	909.21	900.68	892.08	883.41	874.64	1405.6	1370.1	1334.7	1299.7	1265
x1 = 0.5076	933.32	924.7	916.03	907.3	898.5	1446.2	1410.4	1374.6	1339.2	1304.2
x1 = 0.6006	954.58	945.89	937.17	928.39	919.55	1483.1	1447	1410.8	1375.1	1339.7
x1 = 0.7029	977.37	968.62	959.84	951.01	942.13	1523.8	1487.2	1450.6	1414.4	1378.5
x1 = 0.8027	999.22	990.42	981.59	972.72	963.81	1564.5	1527.3	1490.2	1453.5	1417.2
x1 = 0.903	1020.12	1011.3	1002.44	993.55	984.62	1602	1564.6	1527.1	1490.1	1453.4
x1 = 0.9532	1030.34	1021.51	1012.64	1003.74	994.81	1620.1	1582.6	1545.1	1507.9	1471.1
x1 = 1	1039.36	1030.52	1021.66	1012.76	1003.83	1634.1	1596.5	1559	1521.8	1485

[2]
Conditions	excess molar enthalpy [kcal/mol]
x1 = 0.05	-0.032
x1 = 0.101	-0.0624
x1 = 0.193	-0.112
x1 = 0.2923	-0.151
x1 = 0.3845	-0.179
x1 = 0.4985	-0.188
x1 = 0.5962	-0.179
x1 = 0.7004	-0.147
x1 = 0.8026	-0.106
x1 = 0.8897	-0.0564
x1 = 0.9463	-0.0311
x1 = 1	0

Cn1ccnc1 [1-methylimidazole] + CO
[1]
Conditions	mass density, 288.15 K [kg/m3]	mass density, 298.15 K [kg/m3]	mass density, 308.15 K [kg/m3]	mass density, 318.15 K [kg/m3]	mass density, 328.15 K [kg/m3]	speed of sound, 288.15 K [m/s]	speed of sound, 298.15 K [m/s]	speed of sound, 308.15 K [m/s]	speed of sound, 318.15 K [m/s]	speed of sound, 328.15 K [m/s]
x1 = 0.0507	822.81	813.46	804.03	794.49	784.81	1185.2	1151.8	1118.6	1085.8	1053.3
x1 = 0.1009	846.62	837.31	827.92	818.41	808.78	1230.7	1196.9	1163.2	1130	1097.2
x1 = 0.1961	884.53	875.26	865.91	856.48	846.92	1305.4	1270.8	1236.4	1202.4	1168.7
x1 = 0.296	918.09	908.87	899.58	890.21	880.75	1374	1338.8	1303.7	1268.9	1234.5
x1 = 0.3988	946.5	937.33	928.11	918.82	909.45	1434.1	1398.4	1362.7	1327.4	1292.4
x1 = 0.5058	969.95	960.86	951.71	942.51	933.23	1484.7	1448.5	1412.4	1376.6	1341.1
x1 = 0.6096	989.14	980.11	971.04	961.92	952.74	1526.2	1489.6	1453	1416.8	1380.9
x1 = 0.7023	1003.69	994.72	985.72	976.66	967.55	1558	1521.2	1484.3	1447.8	1411.7
x1 = 0.8018	1017.21	1008.3	999.35	990.36	981.32	1587.5	1550.4	1513.3	1476.5	1440.5
x1 = 0.8994	1028.89	1020.02	1011.12	1002.18	993.19	1612.9	1575.6	1538.2	1501.2	1464.5
x1 = 0.951	1034.48	1025.61	1016.76	1007.87	998.91	1625	1587.6	1550.1	1513	1476.2
x1 = 1	1039.36	1030.52	1021.66	1012.76	1003.83	1634.1	1596.5	1559	1521.8	1485

Cn1ccnc1 [1-methylimidazole] + O
[1]
Conditions	mass density, 288.15 K [kg/m3]	mass density, 298.15 K [kg/m3]	mass density, 308.15 K [kg/m3]	mass density, 318.15 K [kg/m3]	mass density, 328.15 K [kg/m3]	speed of sound, 288.15 K [m/s]	speed of sound, 298.15 K [m/s]	speed of sound, 308.15 K [m/s]	speed of sound, 318.15 K [m/s]	speed of sound, 328.15 K [m/s]
x1 = 0.0521	1011.8	1007.6	1002.76	997.34	991.41	1581.3	1587	1588.8	1586.8	1581.4
x1 = 0.1076	1022.54	1016.8	1010.63	1004.04	997.06	1645.6	1636.9	1625.7	1612.2	1596.3
x1 = 0.2035	1035.77	1028.46	1020.89	1013.06	1004.95	1705.3	1682.6	1658.4	1633.1	1606.6
x1 = 0.3041	1044.45	1036.28	1027.92	1019.36	1010.6	1731.5	1707.2	1669.9	1638.1	1605.7
x1 = 0.4017	1048.95	1040.34	1031.57	1022.64	1013.55	1735.5	1701.4	1667.7	1631.6	1596.3
x1 = 0.5053	1050.2	1041.41	1032.48	1023.41	1014.19	1723.2	1687.5	1651.3	1615	1578.4
x1 = 0.6052	1048.91	1040.12	1031.21	1022.16	1012.98	1702.4	1666.6	1630.2	1593.7	1557
x1 = 0.7018	1046.64	1037.87	1028.99	1020.01	1010.92	1681.9	1645.8	1609.4	1573	1536.5
x1 = 0.8044	1043.96	1035.17	1026.32	1017.39	1008.38	1662.5	1626	1589.3	1552.7	1516.3
x1 = 0.9031	1041.64	1032.83	1023.98	1015.07	1006.1	1647.8	1610.9	1573.7	1536.9	1500.3
x1 = 0.9555	1040.49	1031.66	1022.8	1013.91	1004.96	1640.8	1603.8	1566.4	1529.3	1492.6
x1 = 1	1039.36	1030.52	1021.66	1012.76	1003.83	1634.1	1596.5	1559	1521.8	1485

— the NIST ThermoML archive (doi:10.1016/j.jct.2018.12.019)
